Reference: patent US20110065712A1, “TRICYCLIC COMPOUNDS AND PHARMACEUTICAL USES THEREOF” (CYLENE PHARMACEUTICALS , INC., priority 2009, published 2011)

Assays:
[1] = target: recombinant Pim-1 (Homo sapiens, UniProt P11309); assay: Pim-1 assay (33P-ATP, filter plate); type: biochemical; details: read-out: PIM1: IC50
Method: The following procedure was used to assay the Pim-1 kinase activity of compounds of the invention. Other methods for assaying Pim-1 and other Pim kinases, as well as methods to assay for activity against the various kinases disclosed herein are known in the art.
In a final reaction volume of 50 ul, recombinant Pim-1 (1 ng) was incubated with 12 mM MOPS pH 7.0, 0.4 mM EDTA, glycerol 1%, brij 35 0.002%, 2-mercaptoethanol 0.02%, BSA 0.2 mg/ml, 100 uM KKRNRTLTK, 10 mM MgAcetate, 15 uM ATP, [γ-^33P-ATP] (specific activity approx. […]), DMSO 4% and test inhibitor compound at the required concentration. The reaction was initiated by the addition of the magnesium ATP mixture. After 40 min incubation at 23° C., the reactions were quenched by the addition of 100 ul 0.75% Phosphoric acid, and the labeled peptide collected by filtration through a phosphocellulose filter plate. The plate was washed 4 times with 0.075% phosphoric acid (100 ul per well) and then, after the addition of scintillation fluid (20 ul per well), the counts were measured by a scintillation counter.

[2] = target: recombinant human Pim-2 (Homo sapiens, UniProt Q9P1W9); assay: PIM-2 assay (33P-ATP, filter plate); type: biochemical; details: read-out: PIM2: IC50
Method: Test compounds dissolved and diluted in DMSO (2 μl) were added to a reaction mixture comprising 10 μl of 5× Reaction Buffer (40 mM MOPS pH 7.0, 5 mM EDTA), 10 μl of recombinant human Pim-2 solution (4 ng Pim-2 dissolved in dilution buffer (20 mM MOPS pH 7.0; EDTA 1 mM; 5% Glycerol; 0.01% Brij 35; […]; […] 2-mercaptoethanol; 1 mg/ml BSA)) and 8 ul of water. Reactions were initiated by the addition of 10 ul of ATP Solution (49% (15 mM MgCl2; 75 uM ATP) 1% ([γ-^33P]ATP: Stock 1mCi/1000; 3000Ci/mmol (Perkin Elmer)) and 10 ul of substrate peptide solution (RSRSSYPAGT, dissolved in water at a concentration of 1 mM), Reactions were maintained for 10 min at 30° C. The reactions were quenched with 100 ul of 0.75% phosphoric acid, then transferred to and filtered through a Phosphocellulose filter plate (Millipore, MSPH-N6B-50). After washing each well 4 times with 0.75% phosphoric acid, scintillation fluid (20 uL) was added to each well and the residual radioactivity was measured using a Wallac […] counter.

recombinant human Pim-2, sequence (Q9P1W9 whole entry): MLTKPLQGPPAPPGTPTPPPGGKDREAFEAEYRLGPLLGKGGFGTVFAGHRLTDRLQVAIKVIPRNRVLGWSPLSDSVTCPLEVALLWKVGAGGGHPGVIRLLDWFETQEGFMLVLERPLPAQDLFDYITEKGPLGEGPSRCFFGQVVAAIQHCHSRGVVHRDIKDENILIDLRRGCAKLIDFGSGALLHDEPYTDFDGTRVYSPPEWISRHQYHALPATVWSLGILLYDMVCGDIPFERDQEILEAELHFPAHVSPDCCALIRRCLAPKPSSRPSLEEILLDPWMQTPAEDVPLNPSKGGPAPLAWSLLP
recombinant Pim-1, sequence (P11309 whole entry): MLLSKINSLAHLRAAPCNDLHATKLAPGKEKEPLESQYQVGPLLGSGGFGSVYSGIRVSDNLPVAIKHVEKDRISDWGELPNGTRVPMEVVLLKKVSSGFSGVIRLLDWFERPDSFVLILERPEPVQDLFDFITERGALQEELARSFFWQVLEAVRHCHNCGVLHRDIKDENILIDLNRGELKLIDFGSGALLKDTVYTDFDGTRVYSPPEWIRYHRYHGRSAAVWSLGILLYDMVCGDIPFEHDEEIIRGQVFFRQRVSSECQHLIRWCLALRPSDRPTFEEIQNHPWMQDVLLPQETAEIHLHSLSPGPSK

For `NC(=O)c1cnn2c1nc(Nc1ccccc1Cl)c1ccccc12` [Compound B, 5-(2-chlorophenylamino)pyrazolo[1,5-a]quinazoline-3-carboxamide], the IC50 [1] was under 1000 nM and the IC50 [2] was under 1000 nM.
